Assay results taken from paper PMC5789824, “A presumed homologue of the regulatory subunits of eIF2B functions as ribose-1,5-bisphosphate isomerase in Pyrococcus horikoshii OT3” (Scientific Reports, 2018).
Read-outs that look alike come from different tables or passages of the source.

Assays:
[1] = system: ribose-1,5-bisphosphate isomerase (R15Pi); parameters: method as in PMID 23065974; settings: result in words; cited from earlier work
[2] = biological target: T1, PH0208-C135A mutant protein (Pyrococcus horikoshii, UniProt O57947, C135A); test: biochemical; type: binding, Pyrococcus horikoshii OT3
T1 construct: an N-terminal α-helical domain (residues 1–122) and a C-terminal α-β-α sandwich domain (residues 123–324); made in house; host or cells: Escherichia coli Rosetta (DE3)
Method: Henceforth, Cys135 was mutated to alanine (PH0208-C135A) to understand its role in ligand (R15P/RuBP) binding.
(§1) ITC experiments of mutant proteins (PH0208-C135S, PH0208-C135A and PH0208-D204N) with the substrate (R15P) and the product (RuBP) molecules were measured at 25 °C using MicroCal iTC200. Before ITC experiments, the proteins were dialyzed extensively in buffer (20 mM Tris-HCl pH 8.0 and 150 mM KCl) and the equilibrated buffer was subsequently used to prepare ligand solutions to minimize the heat of dilution effects. Each titration consisted of a preliminary injection of 0.4 μl of 7.5–8.0 mM of R15P and RuBP followed by 24 injections of 1.2 μl (spacing 120 s) into the sample cell filled with protein at a final concentration of 75–80 μM. During titration, the syringe rotated at a speed of 450 rpm to facilitate adequate mixing of the reactants. Data were analyzed using MicroCal ORIGIN software and baselines were subtracted from data to obtain accurate heat exchanges.

[3] = biological target: T2, PH0208-C135S mutant protein (Pyrococcus horikoshii, UniProt O57947, C135S); test: biochemical; type: binding, Pyrococcus horikoshii OT3
T2 construct: an N-terminal α-helical domain (residues 1–122) and a C-terminal α-β-α sandwich domain (residues 123–324); made in house; host or cells: Escherichia coli Rosetta (DE3)
Method: (§2) To determine the binding affinity of the substrate (R15P) and the product (RuBP) to the protein PH0208, isothermal titration calorimetry (ITC) experiments were performed. Since binding of the substrate to the PH0208-WT protein triggers a conformational change along with the formation of the product, the heat change measured during the ITC experiment would reflect the sum of heat generated and absorbed during each event. As a result, the binding affinity (Kd) of PH0208 and R15P/RuBP obtained would be delusional. Therefore, binding affinity was studied using the mutant proteins, PH0208-C135S and PH0208-D204N in which case the heat change would be solely due to ligand binding.
as §1

[4] = biological target: T3, PH0208-D204N mutant protein (Pyrococcus horikoshii, UniProt O57947, D204N); test: biochemical; type: binding, Pyrococcus horikoshii OT3
T3 construct: an N-terminal α-helical domain (residues 1–122) and a C-terminal α-β-α sandwich domain (residues 123–324); made in house; host or cells: Escherichia coli Rosetta (DE3)
Method: as §2, §1

[5] = biological target: T4, PH0208 protein (PH0208-WT, PH0208-C135S, PH0208-D204N) (Pyrococcus horikoshii, UniProt O57947, M1V); test: Co-crystallization or soaking with ribonucleotides (crystal structure complexes); type: binding, Pyrococcus horikoshii OT3; settings: for binding of ribonucleotide seen in crystal structure (electron density): co-crystallization or soaking of PH0208-WT, -C135S, -D204N; for preferred molecule at the 'AMP binding site': crystallized in presence of both AMP (1.5 mM) and GMP (4.5 mM)
T4 construct: an N-terminal α-helical domain (residues 1–122) and a C-terminal α-β-α sandwich domain (residues 123–324); made in house; host or cells: Escherichia coli Rosetta (DE3)
Method: To identify the binding site of ribonucleotides, either co-crystallization or soaking of PH0208-WT, PH0208-C135S and PH0208-D204N proteins with AMP, GMP, CMP and TMP was performed. […] The binding site of AMP lies at the interface of three monomers (chain A, B and D) of the hexameric protein (Fig. 4a). The side chains of Arg124 and Asp290 of chain A undergoes a shift towards AMP to form hydrogen bond with the O2′ and O3′ oxygen atoms of the ribose sugar (Fig. 4b). Another two residues of chain A, Arg229 and Trp231 are involved in interacting with the phosphate groups of the AMP molecule. The side chain atoms of Asn209 and the backbone atoms of Val251 of chain B forms hydrogen bond with the oxygen (O2′ and O3′) atoms of the ribose sugar and the nitrogen (N1 and N6) atom of the adenosine base ring, respectively. Along with chain A and chain B, AMP also binds to a third protomer of the hexameric protein through interactions involving the side chain atoms of Arg190 and Lys194 of chain D (Fig. 4c). Thus, one AMP molecule positions itself to hold three protomers of the hexamer. All the amino acid residues of PH0208 protein forming hydrogen bond with AMP are found to be absolutely conserved in R15Pi enzymes. […] In case of both the mutants, PH0208-C135S and PH0208-D204N, AMP occupies a similar position to that of PH0208-WT protein with the major interactions arising from the three subunits of the hexamer. Similar to PH0208-WT, the adenosine base ring interacts with Val251 of chain B, the oxygen atoms of ribose sugar interacts with Arg124 & Asp290 of chain A and Asn209 of chain B while the phosphate group forms hydrogen bond with Arg229 & Trp231 of chain A and Arg190 & Lys194 of chain D of the mutant proteins (Fig. 4d–f).
To obtain crystals of PH0208-WT, an initial screening was performed by mixing 2 μl of protein and 2 μl of crystallization condition available in Crystal Screen, Crystal Screen 2 and PEG/Ion kits from Hampton research at 277 K and 293 K by the microbatch-under-oil technique. Further refinement of one of the conditions containing 2.0 M NaCl and 10% (w/v) PEG 6000 using hanging-drop vapor-diffusion technique in 24-well plate was performed to obtain better crystals. However, crystals of the apo form of PH0208-WT protein diffracted very poorly. To obtain diffraction quality crystals, the substrate (R15P) was added to the crystallization drop which was then equilibrated against 500 μl of 0.7 M NaCl and 3% PEG 6000. Yet, the crystals formed diffracted to a resolution of ~7 Å, only. […] For co-crystallization of PH0208-WT, PH0208-C135S and PH0208-D204N with different ligands, the final protein concentration was kept at 9.5, 9.0 and 7.0 mg ml^−1, respectively in 20 mM Tris-HCl pH 8.0 and 150 mM KCl. The final concentration of R15P in the crystallization drops were 8.33–9 mM while that of AMP, GMP, CMP and TMP were 1.66, 4.5 & 9, 1.66 and 9 mM, respectively. In case of ligand soaking, the concentration of AMP was kept at 5 mM. For obtaining the crystals of ligand bound PH0208-C135S and PH0208-D204N complexes, the reservoir buffer was further supplemented with 0.1–0.3% of low melting (LM) agarose. All the crystals were obtained in hanging-drop vapor-diffusion method at 20 °C within a period of 2–7 days.

T1 sequence (O57947 whole entry C135A, the tested form may be a part): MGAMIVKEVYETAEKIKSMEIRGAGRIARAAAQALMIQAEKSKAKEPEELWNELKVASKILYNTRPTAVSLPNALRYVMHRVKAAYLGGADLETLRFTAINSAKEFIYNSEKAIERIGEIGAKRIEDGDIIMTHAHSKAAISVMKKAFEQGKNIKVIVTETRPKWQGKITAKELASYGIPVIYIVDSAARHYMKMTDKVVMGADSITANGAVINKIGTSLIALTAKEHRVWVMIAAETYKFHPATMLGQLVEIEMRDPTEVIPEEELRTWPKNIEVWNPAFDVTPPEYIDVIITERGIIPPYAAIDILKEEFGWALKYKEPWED
T2 sequence (O57947 whole entry C135S, the tested form may be a part): as the sequence (O57947 whole entry C135A, the tested form may be a part) above, with A135S counted along it
T3 sequence (O57947 whole entry D204N, the tested form may be a part): as the sequence (O57947 whole entry C135A, the tested form may be a part) above, with A135C, D204N counted along it
T4 sequence (O57947 whole entry M1V, the tested form may be a part): as the sequence (O57947 whole entry C135A, the tested form may be a part) above, with M1V, A135C counted along it

## C[S+](CC[C@H](N)C(=O)[O-])C[C@H]1O[C@@H](n2cnc3c(N)ncnc32)[C@H](O)[C@@H]1O (stereo partly shown) [SAM, S-adenosyl methionine]
[1]
  effect on enzymatic activity / catalytic efficiency of R15Pi: inability

## Nc1ncnc2c1ncn2[C@@H]1O[C@H](CSCC[C@H](N)C(=O)O)[C@@H](O)[C@H]1O [SAH, S-adenosyl homocysteine]
[1]
  effect on enzymatic activity / catalytic efficiency of R15Pi: inability

## O=P(O)(O)OC[C@H]1OC(OP(=O)(O)O)[C@H](O)[C@@H]1O (stereo partly shown) [R15P, ribose-1,5-bisphosphate]
[2]; ITC, 25 °C, result in words
  interaction with PH0208-C135A (ITC): did not show any interaction
[3]; ITC, 25 °C
  Ka: 72000 ± 7130 M⁻¹
  T∆S: 7.03 kcal/mol
  ∆G: -6.6 kcal/mol
  ∆H: 0.403 ± 0.013 kcal/mol
[3]; ITC, 25 °C, single-site model, '(fixed)' = fixed in fit
  N: 1.17 ± 0.03
[3]; ITC, 25 °C, read-out: Kd
  Kd: 13.8 µM
[4]; ITC, 25 °C
  Ka: 99100 ± 2630 M⁻¹
  T∆S: 7.77 kcal/mol
  ∆G: -6.8 kcal/mol
  ∆H: 0.981 ± 0.049 kcal/mol
[4]; ITC, 25 °C, read-out: Kd
  Kd: 10 µM

## O=C(COP(=O)(O)O)[C@H](O)[C@H](O)COP(=O)(O)O [RuBP, ribulose-1,5-bisphosphate]
[2]
  Kd: 309 µM
[2]; ITC, 25 °C
  Ka: 3.23 × 10^3 ± 299 M^−1
  T∆S: -4.14 kcal/mol
  ∆G: -4.8 kcal/mol
  ∆H: -8.94 ± 0.40 kcal/mol
[3]
  Kd: 7.5 µM
[3]; ITC, 25 °C
  Ka: 133000 ± 72100 M⁻¹
  T∆S: 2.24 kcal/mol
  ∆G: -6.98 kcal/mol
  ∆H: -4.74 ± 0.39 kcal/mol
[4]
  Kd: 7.2 µM
[4]; ITC, 25 °C
  Ka: 139000 ± 12000 M⁻¹
  T∆S: 4.05 kcal/mol
  ∆G: -7.0 kcal/mol
  ∆H: -2.95 ± 0.06 kcal/mol

## Cc1cn([C@H]2C[C@H](O)[C@@H](COP(=O)(O)O)O2)c(=O)[nH]c1=O [TMP, thymidine 5′-monophospahte]
[1]
  effect on enzymatic activity / catalytic efficiency of R15Pi: neither cytosine 5′-monophosphate (CMP) nor thymidine 5′-monophospahte (TMP) possesses the ability to increase the enzymatic activity
[5]
  binding of ribonucleotide seen in crystal structure (electron density): no electron density

## Nc1ncnc2c1ncn2[C@@H]1O[C@H](COP(=O)(O)O)[C@@H](O)[C@H]1O [AMP, adenosine 5′-monophosphate]
[1]
  effect on enzymatic activity / catalytic efficiency of R15Pi: activator of R15Pi
[5]
  binding of ribonucleotide seen in crystal structure (electron density): bound to the proteins
  preferred molecule at the 'AMP binding site': AMP outcompete GMP and binds to the ‘AMP binding site’

## Nc1nc2c(ncn2[C@@H]2O[C@H](COP(=O)(O)O)[C@@H](O)[C@H]2O)c(=O)[nH]1 [GMP, guanosine 5′-monophosphate]
[1]
  effect on enzymatic activity / catalytic efficiency of R15Pi: elevates the activity of R15Pi, though to a lesser extent as compared to AMP
[5]
  binding of ribonucleotide seen in crystal structure (electron density): bound to the proteins
  preferred molecule at the 'AMP binding site': GMP binds to the ‘GMP binding loop’

## Nc1ncnc2c1ncn2[C@@H]1O[C@H](COP(=O)(O)OP(=O)(O)OP(=O)(O)O)[C@@H](O)[C@H]1O [ATP, adenosine 5ʹ-triphosphate]
[1]
  effect on enzymatic activity / catalytic efficiency of R15Pi: inability

## Nc1ccn([C@@H]2O[C@H](COP(=O)(O)O)[C@@H](O)[C@H]2O)c(=O)n1 [CMP, cytosine 5′-monophosphate]
[1]
  effect on enzymatic activity / catalytic efficiency of R15Pi: neither cytosine 5′-monophosphate (CMP) nor thymidine 5′-monophospahte (TMP) possesses the ability to increase the enzymatic activity
[5]
  binding of ribonucleotide seen in crystal structure (electron density): no electron density
